Results taken from patent US8808500B2, “Method for the use of oxidants for microbial control under reducing conditions” (Lonza Inc., priority 2011, dated 2014).

Tests used:
[1] = ORP of sodium borohydride solution over time after adding aldehyde donor; format: physicochemical
Experimental: Aqueous solutions containing sodium borohydride were mixed at 21° C. to obtain a solution having an initial borohydride content (as NaBH4) of 30-50 ppm, an alkalinity (as CaCO3) of 400 ppm, and a pH of 8.5-9.5. The temperature of the solution was maintained at 21° C. and the ORP of the solution was measured at specified time intervals. The procedure consisted of adding a known amount of aldehyde donor, such as dimethyloldimethylhydantoin or glyoxal, to the samples at a known molar ratio with respect to the borohydride content and following the time-dependence of the ORP.
(§1) For comparison, the residual total halogen (as Cl2) was analyzed without the use of dimethyloldimethylhydantoin.

[2] = Residual total halogen (DPD) after adding sodium hypochlorite to borohydride solution; format: physicochemical; conditions: for Total Halogen with DMDMH: borohydride solution treated with DMDMH; for Total Halogen without DMDMH: borohydride solution, no DMDMH
Experimental: The remaining halogen concentration was then measured by standard DPD total halogen methodologies over time.
as §1

[3] = 2 min after addition of sodium hypochlorite
[4] = 43 min after addition of sodium hypochlorite

Structure (SMILES)	ORP - DMDMH treated [1, 3] [mV]	ORP - DMDMH treated [1, 4] [mV]	Total Halogen with DMDMH [2, 3] [ppm as Cl2]	Total Halogen with DMDMH [2, 4] [ppm as Cl2]	Total Halogen without DMDMH [2, 3] [ppm as Cl2]	Total Halogen without DMDMH [2, 4] [ppm as Cl2]
CC1(C)C(=O)N(CO)C(=O)N1CO [DMDMH, dimethyloldimethylhydantoin]	−251	−77	1.59	1.33	–	–
OCl [sodium hypochlorite, reference compound]	–	–	–	–	<0.1	<0.1
